From patent US20260285816A1, “Piperazinyl-Modified Quinazolinyl-Aryl Urea Derivative, And Preparation Method And Use Thereof” (Guangxi Normal University, priority 2025, published 2026)

Columns and labels:
[1] = tested on: human osteosarcoma 143B; assay: 143B tumor-bearing nude mouse model; assay type: in vivo, nude mice; details: 40 mg/kg oral gavage, every 2 d, 42 d
Procedure: (§1) Experimental method: bladder cancer J82 cells in logarithmic growth phase were trypsinized, collected, and then centrifuged, and resuspended in serum-free DMEM medium after discarding an original medium. Cell density was adjusted, and 0.2 mL cell suspension was subcutaneously inoculated into 5-week-old BALB/c-nu mice (sex-balanced, 18-20 g) under a laminar flow clean bench. Post-inoculation, bleeding at injection sites was monitored. When tumors reached 50-80 mm^3, nude mice with good tumor growth status were randomized into 5 groups (n=6/group) for intraperitoneal administration. Tumor volume and body weight were recorded on Day 0. […] Dosing occurred every 2 d for 42 d. After administering the drug, mice were monitored for diarrhea, anorexia, lethargy, and allergic reactions (e.g., pruritus). The body weight of nude mice was measured every 2 days, and the long and short diameters of the tumors in nude mice were measured by using a vernier caliper, then the recording was finished.
Construction of the human osteosarcoma 143B tumor-bearing nude mouse model followed similar procedures, with identical dosing frequency but administration route changed to oral gavage. Specifically: When tumors reached 60-90 mm^3, mice were randomized into 4 groups (n=6). […]

[2] = tested on: T24 cells; assay: Cell cycle analysis (PI staining, flow cytometry), T24; assay type: cell-based, human
Procedure: (§2) Tumor cells (T24, UM-UC-3, 143B, BxPC-3) in logarithmic growth phase were inoculated into 70 mm culture dishes. After 70% confluency was reached, medium was replaced and treated with: compound 8-1j, ferroptosis inducer Erastin, or cell cycle blocker paclitaxel (PTX) for a specified duration. Post-incubation, cells were trypsinized, collected, centrifuged, and washed 2 times with pre-cooled phosphate-buffered saline (PBS). Pre-cooled 75% ethanol was added dropwise during vortexing for fixation at −20° C. overnight. After centrifugation (10 min), supernatant was discarded. Cells were rewashed with PBS and centrifuged. Following kit instructions (Beyotime, C1052, China), 0.5 mL staining buffer, 25 μL PI (propidium iodide) stain (20×), and 10 μL RNase A (50×) were mixed per sample. Cells were resuspended in PI staining solution and incubated at 37° C. in dark for 30 min (gentle shaking every 10 min). Samples were filtered through 200-mesh filters, transferred into a flow tube, and analyzed via BD FACSVerse flow cytometer. All experiments were conducted in 3 repeats. Compounds 8-2h and 8-2j were evaluated identically.

[3] = tested on: 143B cells; assay: Cell cycle analysis (PI staining, flow cytometry), 143B; assay type: cell-based, human
Procedure: as §2

[4] = tested on: FoxM1, KIF20A, Nrf2, xCT, GPx4, FTH1, HO-1, IRP2, CD71 in bladder cancer T24 cells; assay: Western blot of cell cycle- and ferroptosis-related proteins; assay type: cell-based, human
Procedure: Experimental method: bladder cancer T24 cells in logarithmic growth phase were inoculated into 100 mm culture dishes. After 70% confluency was reached, medium was replaced and treated with compound 8-1j or ferroptosis inhibitor Fer-1. Post-co-incubation, cells were trypsinized, collected, and washed with pre-cooled PBS. 0.2 mL of RIPA cell lysis buffer was added to each tube, mixed thoroughly, and transferred to a 1.5 mL centrifuge tube, and lysed on ice with agitation for 30 min. Lysates were centrifuged at 12,000 rpm (4° C., 10 min) to collect supernatants. Supernatants were mixed with 5×SDS-PAGE protein loading buffer, heated at 95° C. for 7 min, and stored at −80° C. SDS-PAGE (sodium dodecyl sulfate-polyacrylamide gel electrophoresis) was conducted at 80 V until entry into separating gel, then at 120 V until bromophenol blue reached the gel bottom. Gels were cut according to molecular weight indicated by Marker, transferred to membranes, blocked, and then immune reaction was performed. Protein bands were visualized by an enhanced chemiluminescence (ECL) detection system. Band densities were analyzed using ImageJ software. Three repeated experiments were conducted.

[5] = tested on: bladder cancer J82 cells; assay: J82 tumor-bearing nude mouse model; assay type: in vivo, BALB/c-nu mice
Procedure: as §1
0.9% normal saline was added thereto to obtain a solution, which was sterilized under UV light for 30 min. Administration volume was 10 mL/kg per mouse. The preparation contained PEG400 and 0.9% normal saline at a 3:1 volume ratio, with 2% (v/v) DMA.

[6] = tested on: human pancreatic cancer BxPC-3; assay: BxPC-3 tumor-bearing nude mouse model; assay type: in vivo, nude mice; set-up: Tumor growth control, high dose: dose or concentration left out as unconfirmed
[7] = tested on: BxPC-3 cells; assay: Cell cycle analysis (PI staining, flow cytometry), BxPC-3; assay type: cell-based, human
Procedure: as §2

[8] = 20 mg/kg intraperitoneal, every 2 d for 42 d

For `COc1cc2ncnc(NCc3cccc(NC(=O)Nc4ccc(C(C)(C)C)cc4)c3)c2cc1OCCCCCCN1CCN(CCN2CCOCC2)CC1` [Compound 8-1j, N-(3-(((7-methoxy-6-((6-(4-(2-morpholinoethyl)piperazin-1-yl)hexyl)oxy)quinazolin-4-yl)amino)methyl)phenyl)-N′-(4-tert-butylphenyl)urea], the Tumor inhibition [1] was “significantly stronger tumor inhibition than positive control Apat”, the “Effect of co-administration with PTX on cell cycle” value (from here on “Effect of co-administration”) ([2]; T24, with PTX) was “Synergistic effects” and the “Cell cycle arrest phase” value ([2]; T24 cells (FIG. 44)) was “arrest cell cycle at G2/M phase”. The “Cell cycle arrest phase” value ([3]; 143B cells (FIG. 46)) was “arrest cell cycle at G2/M phase”, the “Effect of co-administration” value ([3]; 143B, with PTX) was “Synergistic effects” and the “Ferroptosis-related proteins HO-1, IRP2, and CD71 expression” value [4] was “upregulating”. For the same molecule, the “FoxM1, KIF20A, Nrf2, xCT, GPx4, and FTH1 expression” value ([4]; concentration-dependently) was “significantly downregulates”, the “Body weight and tolerability observations” value [5, 8] was “Mild weight loss occurs without anorexia, diarrhea, or pruritus” and the “Tumor growth rates vs. vehicle control and equi-dose positive control” value [5, 8] was “significantly lower”. For the same molecule, the “Anti-tumor efficacy compared with 9g (A-2)” value ([5]; at 20 mg/kg intraperitoneal) was “surpassed that of 9g (A-2)”.

`CCc1cccc(CC)c1NC(=O)Nc1cccc(CNc2ncnc3cc(OC)c(OCCCCCCN4CCC(CN5CCN(c6ccccn6)CC5)CC4)cc23)c1` [Compound 8-2h, N-(3-(((7-methoxy-6-((6-(4-((4-(pyridin-2-yl)piperazin-1-yl)methyl)piperidin-1-yl)hexyl)oxy)quinazolin-4-yl)amino)methyl)phenyl)-N′-(2,6-diethylphenyl)urea] was tested, and the “Tumor growth control, high dose” value [6] was “controls tumor growth by Day 28”, the “Tumor after continued administration” value ([6]; high dose, oral gavage, up to 42 d) was “significantly shrank” and the Toxicity observations ([6]; oral gavage, gemcitabine 24 mg/kg, 8-2h 12, 24, 36 mg/kg) was “no toxicity”. The “Cell cycle arrest phase, high concentration” value ([7]; high concentration (>6 μM)) was “G2/M arrest”, the “Cell cycle arrest phase, low concentration” value ([7]; low concentration (e.g., 3 μM)) was “G0/G1 arrest” and the “Effect of co-administration” value ([7]; with PTX) was “Synergistic effects”.
